Tests used:
[1] = system: benzodiazepine site of GABAA; experiment: Binding assay, benzodiazepine site of GABAA (binding assay 1: rat brain, (3H)-flunitrazepam; binding assay 2: bovine hippocampal membranes, [3H]-RY80); settings: radioligand binding; for % Inhibition at 10 μM: 10 μM test compound; for % Inhibition at 0.1 μM: 0.1 μM test compound
How it was run: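 Assay 1: rat whole-brain (minus cerebellum) membranes in Na–K phosphate pH 7.4, 1 nM (3H)-flunitrazepam, 60 min at 25° C., ± 30 μM GABA; nonspecific with 10 μM diazepam. Assay 2: bovine hippocampal membranes, 0.8 nM [3H]-RY80 in 50 mM Tris-Citrate pH 7.8/200 mM NaCl, 60 min at 0-4° C.; nonspecific with 0.5 μM L-655,708. Filtration read-out.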

GABAA receptors = experiment: Electrophysiology assay, two-electrode voltage clamp in Xenopus oocytes expressing GABAA receptors; assay type: cell-based; settings: GABA EC10, screening concentration of 10 μM, subunit combination not stated
Protocol: mRNA was prepared from lyophilized plasmid pellets containing cDNA inserts encoding the specific GABAA receptor subunit. cDNAs encoding the α2, α3, and γ3 subunits were subcloned into pBluescript, SK^−. cDNAs encoding the α1 and α5 subunits were subcloned into prC while cDNA encoding the β2 subunit was subcloned into pcDNA1. The cDNA construct encoding the γ2s subunit is in the pGH19 expression construct. Overnight cultures of transformed DH5a bacterial cells were performed to grow sufficient quantities for maxiprep isolation of the plasmid cDNA. The resulting plasmid cDNA was linearized by digestion with an appropriate restriction enzyme that cleaves distal to the cDNA insert (XbaI for α1,2, β2, and γ3 or NotI for α3,5 and γ2, respectively). Following digestion, plasmid cDNA was treated with proteinase K and extracted with phenol/chloroform/isoamyl alcohol, followed by ethanol precipitation. cDNA quality was assessed by agarose-gel electrophoresis (1.5% agarose gel). Samples were stored at −20° C. until use. In vitro transcription was performed with T7 RNA polymerase. mRNA was then stored at −80° C. until use. Plasmids were linearized with appropriate restriction enzymes before in vitro transcription using the Message Machine kit (Ambion, Austin, Tex.).
GABAA Receptor Expression in Xenopus oocytes.
GABAA receptor expression in Xenopus oocytes: Following 45 min of 0.15% Tricaine anesthesia, an ovarian section containing the follicular oocytes was removed from the frog through a lateral abdominal incision. Oocytes were immediately placed in a calcium-free solution (NaCl 96 mM, MgCl2 1 mM, KCl 2 mM, Hepes 50 mM, pyruvate 2.5 mM, gentamycin 100 μg/mL, penicillin-streptomycin 50 U/mL, pH 7.4). Following 1.5-2 hour incubation in 0.2% collagenase (type II, Sigma Chemical Co., St. Louis, Mo.) at room temperature, individual Dumont stage V and VI oocytes were transferred to an incubator and maintained overnight in Barth's solution (NaCl 84 mM, NaHCO3 2.4 mM, MgSO4 0.82 mM, KCl 1 mM, Ca(NO3)2 0.33 mM, CaCl2 0.41 mM, Tris/HCl 7.5 mM, pyruvate 2.5 mM, gentamycin 50 μg/mL, penicillin-streptomycin, 100 units/mL, pH 7.4) at 18-20° C. and used for experiments 1-5 days post-injection. Oocytes were injected solution using an electronic microinjector (Drummond, Broomall, Pa.) with 50 nL of RNA containing 0.3-0.5 ng of each subunit RNA in a 1:1:1 ratio. The injected oocytes were used for experiments after 1-5 days of incubation in Barth's solution at 18-20° C.
Measurements of ion currents from oocytes expressing GABAA receptors were performed using a Warner two-electrode voltage-clamp amplifier (Warner Instruments, Inc., Foster City, Calif.) (Park-Chung, M., et al. (1999) Brain Res. 830: 72-87 incorporated herein in its entirety). Microelectrodes were fabricated from borosilicate glass capillaries with a programmed pipette puller (Sutter Instrument Co., Calif.). Microelectrode resistance was 1-3 MΩ when filled with 3 M KCl. The oocyte recording chamber was continuously perfused with Ringer solution. Oocytes were clamped at a holding potential of −70 mV during data acquisition. The membrane current was filtered at 10 Hz and sampled at 100 Hz. Compounds were applied by a gravity-driven external perfusion system. The working volume of the recording chamber was 30 μL and the rate of the perfusion was approximately 50 μL/sec. Compound application was 10-20 sec followed by a 90 sec wash. Data acquisition and external perfusion was computer controlled by custom-developed software. All experiments were performed at room temperature (22-24° C.). Dose-response data from each oocyte were fitted to the Hill equation by non-linear regression using the equation: IGABA=Emax/(1+(EC50/c)^n^H)
Emax is the maximum response, EC50 is the concentration producing 50% of the maximal response, nH is the Hill coefficient and c is the concentration of agonist. […]

| SMILES | % Inhibition at 10 μM [1] | EP Modulation (GABAA receptors) | % Inhibition at 0.1 μM [1] |
| --- | --- | --- | --- |
| CCNC(=O)n1ncc2c3nn(-c4cccc(Cl)c4)c(=O)c-3c[nH]c21 [Compound 6ad, 2-(3-chlorophenyl)-N-ethyl-3-oxo-2,3-dihydrodipyrazolo[3,4-b:3′,4′-d]pyridine-6(5H)-carboxamide] | A (A indicates % inhibition >80%) | E (E indicates negative modulation <20%) | – |
| CCNC(=O)n1ncc2c3nn(-c4ccsc4)c(=O)c-3c[nH]c21 [Compound 6u, N-ethyl-3-oxo-2-(thiophen-3-yl)-2,3-dihydrodipyrazolo[3,4-b:3′,4′-d]pyridine-6(5H)-carboxamide] | A (A indicates % inhibition >80%) | D (D indicates negative modulation >20%) | – |
| CCNC(=O)n1ncc2c3nn(-c4cccc(C(F)(F)F)c4)c(=O)c-3c[nH]c21 [Compound 6ai, N-ethyl-3-oxo-2-(3-(trifluoromethyl)phenyl)-2,3-dihydrodipyrazolo[3,4-b:3′,4′-d]pyridine-6(5H)-carboxamide] | A (A indicates % inhibition >80%) | 0% | C (C indicates % inhibition <20%) |
| CCNC(=O)n1nc(C)c2c3nn(-c4ccccc4)c(=O)c-3c[nH]c21 [Compound 6l, N-ethyl-8-methyl-3-oxo-2-phenyl-2,3-dihydrodipyrazolo[3,4-b:3′,4′-d]pyridine-6(5H)-carboxamide] | A (A indicates % inhibition >80%) | D (D indicates negative modulation >20%) | A (A indicates % inhibition >80%) |
| CCCCNC(=O)n1cc2[nH]cc3c(=O)n(-c4ccccc4F)nc-3c2c1 [Compound 13e, N-butyl-2-(2-fluorophenyl)-3-oxo-2,3-dihydropyrazolo[3,4-d]pyrrolo[3,4-b]pyridine-7(5H)-carboxamide] | A (A indicates % inhibition >80%) | E (E indicates negative modulation <20%) | B (B indicates % inhibition <80% and >20%) |
| O=C(Nc1ccccc1)n1ncc2c3nn(-c4ccccc4)c(=O)c-3c[nH]c21 [Compound 6h, 3-oxo-N,2-diphenyl-2,3-dihydrodipyrazolo[3,4-b:3′,4′-d]pyridine-6(5H)-carboxamide] | B (B indicates % inhibition <80% and >20%) | D (D indicates negative modulation >20%) | C (C indicates % inhibition <20%) |
| CNC(=O)n1cc2[nH]cc3c(=O)n(-c4ccccc4)nc-3c2c1 [Compound 13a, N-Methyl-3-oxo-2-phenyl-2,3-dihydropyrazolo[3,4-d]pyrrolo[3,4-b]pyridine-7(5H)-carboxamide] | A (A indicates % inhibition >80%) | D (D indicates negative modulation >20%) | A (A indicates % inhibition >80%) |
| CCNC(=O)n1cc2[nH]cc3c(=O)n(-c4ccccc4F)nc-3c2c1 [Compound 13d, N-Ethyl-2-(2-fluorophenyl)-3-oxo-2,3-dihydropyrazolo[3,4-d]pyrrolo[3,4-b]pyridine-7(5H)-carboxamide] | A (A indicates % inhibition >80%) | D (D indicates negative modulation >20%) | B (B indicates % inhibition <80% and >20%) |
| CCNC(=O)n1ncc2c3nn(-c4ccccc4)c(=O)c-3c[nH]c21 [Compound 6b, N-ethyl-3-oxo-2-phenyl-2,3-dihydrodipyrazolo[3,4-b:3′,4′-d]pyridine-6(5H)-carboxamide] | A (A indicates % inhibition >80%) | D (D indicates negative modulation >20%) | A (A indicates % inhibition >80%) |
| CN(C)CCNC(=O)n1ncc2c3nn(-c4ccccc4)c(=O)c-3c[nH]c21 [Compound 7a, N-(2-(dimethylamino)ethyl)-3-oxo-2-phenyl-2,3-dihydrodipyrazolo[3,4-b:3′,4′-d]pyridine-6(5H)-carboxamide] | B (B indicates % inhibition <80% and >20%) | E (E indicates negative modulation <20%) | C (C indicates % inhibition <20%) |
| CC(C)N1CCN(C(=O)n2ncc3c4nn(-c5ccccc5)c(=O)c-4c[nH]c32)CC1 [Compound 7d, 6-(4-isopropylpiperazine-1-carbonyl)-2-phenyl-5,6-dihydrodipyrazolo[3,4-b:3′,4′-d]pyridin-3(2H)-one] | C (C indicates % inhibition <20%) | Positive | C (C indicates % inhibition <20%) |
| CC(C)NC(=O)n1ncc2c3nn(-c4ccccn4)c(=O)c-3c[nH]c21 [Compound 6n, N-isopropyl-3-oxo-2-(pyridin-2-yl)-2,3-dihydrodipyrazolo[3,4-b:3′,4′-d]pyridine-6(5H)-carboxamide] | C (C indicates % inhibition <20%) | E (E indicates negative modulation <20%) | C (C indicates % inhibition <20%) |
